Assay results published in patent publication US7879876B2, “Sulfonamide derivatives and use thereof for the modulation of metalloproteinases” (Merck Serono SA, priority 2005, dated 2011).
pIC50: −log10 of the molar value. Counter-ions that a name gives are not always drawn.

Legend:
Type in all cases: biochemical
[1] = molecular target: 92 kDa gelatinase (MMP-9) (Homo sapiens, UniProt P14780); experiment: MMP-9 enzyme inhibition assay (coumarin-labeled peptide substrate); conditions: read-out: IC50 MMP9
Experimental: (§1) Compounds of the invention were tested to assess their activities as inhibitors of MMP-1, MMP-2, MMP-9, MMP-14, MMP-12 and TACE. MMP-9 Assay Protocol
(§2) Compounds of the invention were tested for inhibitory activity against 92 kDa gelatinase (MMP-9) in an assay using a coumarin-labeled peptide substrate, (7-methoxycoumarin-4-yl)acetyl-Pro-Leu-Gly-Leu-(3-[2,4-dinitrophenyl]-L-2,3diaminopropionyl)-Ala-Arg-NH2 (McaPLGLDpaAR) (Knight et al, FEBS Lett. 1992; 263-266).
(§3) Stock solutions were made up as follows: Assay Butter: 100 mM Tris-HCl pH 7.6 containing 100 mM NaCl, 10 mM CaCl2, and 0.05% Brij 35.
(§4) Substrate: 0.4 mM McaPLGLDpaAR (from Bachem) (0.437 mg/ml) stock solution in 100% DMSO (stored at −20° C.). Dilute to 8 μM in assay butter.
(§5) Enzyme: Recombinant human 92 kDa gelatinase (MMP-9; APMA (4-aminophenyl mercuric acetate)-activated if necessary) appropriately diluted in assay butter.
(§6) Test Compounds were prepared initially as 10 mM compound solution in 100% DMSO, diluted to 1 mM in 100% DMSO, then serially diluted 3-fold in 100% DMSO across columns 1-10 of a 96-well microtitre plate Assay concentration range, 100 μM (column 1) to 5.1 nM (column 10).
(§7) The assay was performed in a total volume of 100 μL per well in 96-well microtitre plates. Activated enzyme (20 μL) was added to the wells followed by 20 μL of assay butter. Appropriate concentrations of test compounds dissolved in 10 μL of DMSO were then added followed by 50 μL of McaPLGLDpaAR (8 μM, prepared by dilution of DMSO stock in assay butter). For each as say ten concentrations of test compound were examined in duplicate. Control wells lack either enzyme or test compound. The reactions were incubated at 37° C. for 2 hours. The fluorescence at 405 nm was measured immediately with an SLT Fluostar fluorometer (SL T Labinstruments GmbH, Grödig, Austria) using 320 nm excitation, without stopping the reaction.
(§8) The effect of the test compound was determined from the dose response curve generated by the 10 duplicate concentrations of inhibitor. The IC50 (the concentration of compound required to give a 50% decrease in enzyme activity) was obtained by fitting data to the equation, Y=a+((b−a)/(1+(c/X)^d)). (Y=inhibition achieved for a particular dose; X=the dose in nM; a=minimum y or zero % inhibition; b=maximum y or 100% inhibition; c=is the IC50; d=is the slope). The result was rounded to one significant figure.

MMP-14 = MMP-14 (Homo sapiens, UniProt P50281); experiment: MMP-14 enzyme inhibition assay (coumarin-labelled peptide substrate); conditions: @ 5 μM; read-out: percentage inhibition MMP14
Experimental: as §1, §2, §3, §4, §5, §6, §7, §8
(§9) Compounds of the invention were tested for inhibitory activity against MMP-14 in an assay using a coumarin-labelled peptide substrate, (7-methoxycoumarin-4-yl)acetyl-Pro-Leu-Gly-Leu-(3-[2,4-dinitrophenyl]-L-2,3diaminopropionyl)-Ala-Arg-NH2 (Mca PLGLD paAR) (Knight et al, 1992, above). The protocol for this assay was as described for the MMP-9 assay above.

metalloelastase (MMP-12) = metalloelastase (MMP-12) (Homo sapiens, UniProt P39900); experiment: MMP-12 enzyme inhibition assay (coumarin-labelled peptide substrate); conditions: read-out: IC50 MMP12
Experimental: as §1, §2, §3, §4, §5, §6, §7, §8
Compounds of the invention were tested for inhibitory activity against metalloelastase (MMP-12) in an assay using a coumarin-labelled peptide substrate, (7-methoxycoumarin-4-yl)acetyl-Pro-Leu-Gly-Leu-(3-[2,4-dinitrophenyl]-L-2,3-diaminopropionyl)-Ala-Arg-NH2 (McaPLGLDpaAR) (Knight et al, 1992, above). The protocol for this assay was as described for the MMP-9 assay above.

collagenase (MMP-1) = molecular target: T1, collagenase (MMP-1) (Homo sapiens, UniProt P03956); experiment: MMP-1 enzyme inhibition assay (coumarin-labelled peptide substrate); conditions: @ 5 μM; read-out: percentage inhibition MMP1
T1 sequence (P03956 100-469): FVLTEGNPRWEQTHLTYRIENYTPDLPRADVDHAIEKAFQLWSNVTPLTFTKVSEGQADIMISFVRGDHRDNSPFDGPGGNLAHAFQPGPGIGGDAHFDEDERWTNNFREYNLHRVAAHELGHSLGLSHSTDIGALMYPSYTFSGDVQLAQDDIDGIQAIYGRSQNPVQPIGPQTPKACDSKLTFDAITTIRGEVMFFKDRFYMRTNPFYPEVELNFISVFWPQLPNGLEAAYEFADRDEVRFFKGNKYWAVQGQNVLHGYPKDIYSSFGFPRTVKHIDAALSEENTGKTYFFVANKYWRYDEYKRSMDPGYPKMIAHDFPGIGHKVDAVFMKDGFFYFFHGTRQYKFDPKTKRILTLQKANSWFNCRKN
Experimental: as §1, §2, §3, §4, §5, §6, §7, §8
as §9, with “collagenase (MMP-1)” for “MMP-14”, “PLGLDpaAR)” for “PLGLD paAR)”

MMP13 = MMP13 (Homo sapiens, UniProt P45452); experiment: MMP13 inhibition (Table 1); conditions: read-out: percentage inhibition MMP13
gelatinase A (MMP-2) = molecular target: T2, gelatinase A (MMP-2) (Homo sapiens, UniProt P08253); experiment: MMP-2 enzyme inhibition assay (coumarin-labelled peptide substrate); conditions: read-out: IC50 MMP2
T2 sequence (P08253 110-660): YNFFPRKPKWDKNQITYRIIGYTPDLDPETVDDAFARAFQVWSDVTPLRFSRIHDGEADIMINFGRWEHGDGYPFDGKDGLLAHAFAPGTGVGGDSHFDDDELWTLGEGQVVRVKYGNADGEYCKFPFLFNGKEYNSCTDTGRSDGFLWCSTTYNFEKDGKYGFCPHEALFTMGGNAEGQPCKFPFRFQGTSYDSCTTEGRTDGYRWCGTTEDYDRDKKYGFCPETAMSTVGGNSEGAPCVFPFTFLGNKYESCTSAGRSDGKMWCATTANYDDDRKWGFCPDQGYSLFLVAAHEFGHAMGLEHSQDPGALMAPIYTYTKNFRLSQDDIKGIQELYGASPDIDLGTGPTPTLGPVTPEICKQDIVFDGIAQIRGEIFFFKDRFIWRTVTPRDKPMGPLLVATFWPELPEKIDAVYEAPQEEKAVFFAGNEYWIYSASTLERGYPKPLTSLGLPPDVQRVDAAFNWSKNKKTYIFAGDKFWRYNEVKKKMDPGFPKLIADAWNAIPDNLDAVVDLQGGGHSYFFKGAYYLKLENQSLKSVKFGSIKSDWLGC
Experimental: Compounds of the invention were tested to assess their activities as inhibitors of MMP-1, MMP-2, MMP-9, MMP-14, MMP-12 and TACE. MMP-9 Assay Protocol […]
as §3
Substrate: 0.4 mM McaPLGLDpaAR (from Bachem) (0.437 mg/ml) stock solution in 100% DMSO (stored at −20° C.). Dilute to 8 μM in assay butter. […]
as §6, §7, §8
as §9, with “gelatinase A (MMP-2)” for “MMP-14”, “PLGLDpaAR)” for “PLGLD paAR)”

metalloelastase (MMP-12), sequence (P39900 106-470): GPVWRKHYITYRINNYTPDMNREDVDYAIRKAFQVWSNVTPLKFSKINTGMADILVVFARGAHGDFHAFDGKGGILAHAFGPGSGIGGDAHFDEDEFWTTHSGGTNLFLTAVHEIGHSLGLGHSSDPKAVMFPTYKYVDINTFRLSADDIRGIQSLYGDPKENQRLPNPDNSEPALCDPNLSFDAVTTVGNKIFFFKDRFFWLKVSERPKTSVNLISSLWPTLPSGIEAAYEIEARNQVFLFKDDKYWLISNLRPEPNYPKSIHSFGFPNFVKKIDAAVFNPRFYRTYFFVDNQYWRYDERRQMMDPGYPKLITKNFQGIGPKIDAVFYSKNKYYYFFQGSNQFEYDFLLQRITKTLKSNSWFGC
92 kDa gelatinase (MMP-9), sequence (P14780 107-707 limits assumed): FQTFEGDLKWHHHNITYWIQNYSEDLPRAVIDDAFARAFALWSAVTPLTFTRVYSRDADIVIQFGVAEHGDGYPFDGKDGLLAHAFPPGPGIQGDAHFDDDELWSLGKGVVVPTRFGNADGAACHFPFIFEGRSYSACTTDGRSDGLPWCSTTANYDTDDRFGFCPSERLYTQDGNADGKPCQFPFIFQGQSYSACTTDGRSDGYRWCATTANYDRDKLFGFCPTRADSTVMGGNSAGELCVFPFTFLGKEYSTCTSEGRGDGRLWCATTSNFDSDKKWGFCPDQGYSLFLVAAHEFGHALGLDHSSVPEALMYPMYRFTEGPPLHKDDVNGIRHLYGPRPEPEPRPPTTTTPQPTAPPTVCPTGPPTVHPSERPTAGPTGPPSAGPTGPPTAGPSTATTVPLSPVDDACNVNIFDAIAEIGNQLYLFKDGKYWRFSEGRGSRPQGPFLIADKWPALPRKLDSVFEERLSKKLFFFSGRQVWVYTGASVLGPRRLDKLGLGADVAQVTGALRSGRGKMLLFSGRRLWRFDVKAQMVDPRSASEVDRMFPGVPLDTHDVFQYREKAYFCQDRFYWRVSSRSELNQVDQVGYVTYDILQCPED

Row | Structure (SMILES) | pIC50 [1] | inhibition at 5 µM (MMP-14) | pIC50 (metalloelastase (MMP-12)) | inhibition at 5 µM (collagenase (MMP-1)) | inhibition at 0.1 µM (MMP13) | inhibition at 5 µM (MMP13) | pIC50 (gelatinase A (MMP-2))
1 | O=CN(O)C(CS(=O)(=O)N1CCc2ccccc2C1)c1cccs1 (stereo not drawn) [Example 5, N-[2-(3,4-dihydroisoquinolin-2(1H)-ylsulfonyl)-1-(2-thienyl)ethyl]-N-hydroxyformamide] | < 5.30 | 70% | 7.80 | 32% | 16% | 97% | 6.12
2 | CC(C)(C(CS(=O)(=O)N1CCc2ccccc2C1)N(O)C=O)N1CCOCC1 (stereo not drawn) [Example 8, N-{1-[(3,4-dihydroisoquinolin-2(1H)-ylsulfonyl)methyl]-2-methyl-2-morpholin-4-ylpropyl}-N-hydroxyformamide] | < 5.30 | 8% | 6.20 | 5% |  | 41% | < 5.30
3 | O=CN(O)C(CS(=O)(=O)N1CCc2ccccc2C1)c1cccnc1 (stereo not drawn) [Example 11, N-[2-(3,4-dihydroisoquinolin-2(1H)-ylsulfonyl)-1-pyridin-3-ylethyl]-N-hydroxyformamide, hydrochloride salt] | < 5.30 |  | 7.59 |  | 15% |  | 
4 | COc1cc2c(cc1OC)CN(S(=O)(=O)CC(N(O)C=O)C(C)(C)C)CC2 (stereo not drawn) [Example 20, N-(1-{[(6,7-dimethoxy-3,4-dihydroisoquinolin-2(1H)-yl)sulfonyl]methyl}-2,2-dimethylpropyl)-N-hydroxyformamide] | < 5.30 | 0% | 6.55 | 0% |  |  | < 5.30
